Assay [1] concerns the target T1, SPOP MATH WT (Homo sapiens, UniProt O43791). Nature of the assay: Equilibrium binding, FRET (Trp to dansyl), fluorescence titration. The following applies: read-out: Equilibrium KD; dansylated peptide 0 to 40 µM; constant SPOP MATH WT (2 µM in methods, 1 µM in results); excitation 280 nm, emission 300-400 nm; 298 K; hyperbolic fit. The text has this:
The MATH domain of SPOP exerts its functions by specifically recognizing different substrates and, therefore, acting as an adaptor module between SPOP and its physiological ligands. In an effort to provide a complete characterization of SPOP MATH binding mechanisms, we investigated the recognition of three peptides mimicking a specific region of the substrates Puc (region 96–105), MacroH2A (region 166–179), and PTEN (region 354–368). […] Moreover, the three-dimensional structure of SPOP MATH in complexes with each of the peptides has been previously reported (3HQH, 3HQL, and 4OV1 PDB entries, respectively). Similar to previous work on other protein–protein recognition modules, we employed peptides carrying a covalently attached N-terminal dansyl fluorophore. Binding was then followed by measuring the FRET (Forster resonance energy transfer) between the three tryptophan residues of the SPOP MATH domain (donor) and the dansyl group of the peptides (acceptor).
To address the equilibrium binding affinity of SPOP MATH and its substrates, a fixed concentration of the protein (1 µM) was challenged with increasing peptide concentrations. In all cases, the fluorescence-monitored transition returned a hyperbolic behavior as described in the Section 4, which allowed estimating a dissociation constant of 1.4 ± 0.4 µM, 1.6 ± 0.2 µM, and 5.5 ± 0.5 µM for Puc, MacroH2A, and PTEN, respectively (Figure 2). These values appear partly consistent with what was previously reported by Zhuang et al. by using surface plasmon resonance. […]
Equilibrium binding experiments were performed on a Fluoromax-4 single-photon-counting spectrofluorometer (Jobin-Yvon, Newark, NJ, USA). The SPOP MATH domain was excited at 280 nm and emission spectra were recorded between 300 and 400 nm, at increasing dansylated peptide concentrations. […]

Assay [2] concerns the target T1, SPOP MATH WT. Nature of the assay: Stopped-flow pseudo-first-order binding kinetics. The following applies: 298 K; for kon: stopped-flow, 2 µM MATH domain, dansylated peptide 2 to 10 µM (Puc, MacroH2A) or 2 to 40 µM (PTEN), 50 mM sodium-HEPES, pH 7.2 (for ionic strength series), five traces averaged, slope of kobs vs peptide. The procedure: (§1) To infer the mechanism of recognition of SPOP MATH, we resorted to performing time-resolved kinetic experiments. SPOP MATH was rapidly mixed with increasing concentrations of dansylated peptides (from 2 to 10 µM for Puc and MacroH2A, and from 2 to 40 µM for PTEN) in a stopped-flow apparatus at 298 K. The binding traces obtained by monitoring the time-resolved fluorescence were satisfactorily fitted to a single exponential equation, allowing calculating the observed rate constants kobs at different peptide concentrations. We then plotted the kobs values over the concentration of dansylated peptide and fitted the data to a simple linear function equation: kobs=kon Peptide+koff where kobs is the observed rate constant; kon and koff are the microscopic association and dissociation rate constants, respectively (Figure 2). The slope and y-axis intercept represent the microscopic association and dissociation rate constant, respectively. To minimize the error associated with the indirect measurement of the dissociation rate constant, we carried out displacement experiments to determine the koff values. The displacement experiments were designed by mixing the preformed complex SPOP MATH-dansylated peptides with a high excess of nondansylated peptide, as described in the Section 4. […] On the basis of these observations, it is possible to conclude that, in the case of binding to MacroH2A and PTEN, there is the presence of an additional step, which escapes detection by stopped-flow experiments and is likely to be negligible in the case of Puc. […] We note that such a case closely resembles the presence of a so-called burst phase, which is frequently observed in protein-folding studies.
Binding kinetic experiments were performed on an Applied Photophysics DX-17MV stopped-flow apparatus (Applied Photophysics, Leatherhead, UK). Pseudo-first-order binding experiments were performed by mixing a constant concentration (2 μM) of MATH domain with increasing dansylated peptides concentrations, from 2 to 10 μM of Puc and MacroH2A, and 2 to 40 µM of PTEN. The samples were excited at 280 nm, and the emission fluorescence was recorded by using a bandpass 320 nm cutoff filter. The experiments were performed at 298 K. For ionic strength dependence with Puc and MacroH2A, the buffers used were 50 mM sodium-HEPES, pH 7.2, supplemented with 50 mM, 100 mM, 200 mM, or 500 mM of sodium chloride (NaCl). For the PTEN binding salt dependence experiments, lower concentrations of salt were added for the previous buffer list mentioned (10 mM, 25 mM, and 50 mM of sodium chloride). For each acquisition, five traces were collected, averaged, and satisfactorily fitted to a single exponential equation.

The target of assay [3] is T1, SPOP MATH WT. Kind of assay: Stopped-flow displacement. It is filed as binding. The following applies: preincubated complex (both 8 µM) mixed with 50 μM nondansylated peptide, 298 K, average of five single traces. The protocol:
as §1
Microscopic dissociation rate constants (koff) were directly measured by performing displacement experiments on an Applied Photophysics DX-17MV stopped-flow apparatus (Applied Photophysics). […] The samples were excited at 280 nm and fluorescence emission was collected by using a 330 ± 30 nm bandpass filter. […] The observed rate constants were calculated from the average of five single traces. […]
Target sequence in this assay (O43791 1-182): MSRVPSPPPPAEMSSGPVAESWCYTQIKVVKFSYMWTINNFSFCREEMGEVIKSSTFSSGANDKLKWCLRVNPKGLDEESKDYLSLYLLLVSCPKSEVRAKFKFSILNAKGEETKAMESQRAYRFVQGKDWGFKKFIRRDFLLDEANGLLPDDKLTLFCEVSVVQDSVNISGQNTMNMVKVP

For assay [4], the target named is engineered MATH domain of SPOP (Speckle-type POZ protein), residues 1-182, cysteine residues substituted to serine (UniProt O43791). Kind of assay: stopped-flow fluorescence displacement; preincubated complex of MATH domain and dansylated peptide (both 8 µM) mixed with an excess of nondansylated peptide (50 µM); 298 K; same buffer as the binding experiments; single exponential decay gives koff.

Assay [5] shares this target. Kind of assay: stopped-flow fluorescence binding kinetics; pseudo-first-order; 2 µM MATH mixed with dansylated peptide, 2 to 10 µM Puc and MacroH2A, 2 to 40 µM PTEN; excitation 280 nm; 298 K; kobs against peptide concentration fitted to a line, kon from the slope.
The target is the same in assay [6]. Nature of the assay: other fluorescence titration; equilibrium; FRET from the tryptophans of SPOP MATH (excited at 280 nm, emission 300-400 nm) to the dansyl of the peptide; MATH at constant concentration (2 µM in the methods, 1 µM in the results), dansylated peptide 0 to 40 µM; 298 K; hyperbolic fit.
The target is the same in assay [7]. Kind of assay: stopped-flow fluorescence binding kinetics + other: stopped-flow fluorescence displacement; KD calculated by combining kon of the pseudo-first-order plots with koff of the displacement experiments; 298 K.

Where a SMILES comes first, the peptide text is derived from it. Where no end group is shown, it is not given here. The star is where a group is joined. Dansyl = CN(C)c1cccc2c(S(=O)(=O)*)cccc12

For `C[C@H](NC(=O)[C@H](C)NC(=O)[C@H](CCCCN)NS(=O)(=O)c1cccc2c(N(C)C)cccc12)C(=O)N[C@@H](CO)C(=O)N[C@@H](C)C(=O)N[C@@H](CC(=O)O)C(=O)N[C@@H](CO)C(=O)N[C@H](C(=O)N[C@H](C(=O)N[C@@H](CCC(=O)O)C(=O)NCC(=O)N[C@H](C(=O)N1CCC[C@H]1C(=O)N[C@@H](C)C(=O)N[C@@H](CC(=O)O)C(=O)O)[C@@H](C)O)[C@@H](C)O)[C@@H](C)O` [MacroH2A] (HELM PEPTIDE1{[CN(C)c1cccc2c(S(=O)(=O)[*:2])cccc12].K.A.A.S.A.D.S.T.T.E.G.T.P.A.D}$$$$V2.0), the Kd (in general, the free concentration of one partner at which half of the binding sites on the other are occupied at equilibrium, for simple one-to-one binding) at SPOP MATH WT [1] was determined as 1.6 ± 0.2 µM. Moreover, the kon (in general, the second-order rate constant of association) at SPOP MATH WT [2] amounted to 3e+06 ± 2e+06 M⁻¹ s⁻¹. Also, at SPOP MATH WT [3], the koff (as a rule, a measure of how fast the partners let go of each other) amounted to 21 ± 2 s⁻¹.
For `CC(C)[C@H](NC(=O)[C@H](CO)NC(=O)[C@@H](NC(=O)[C@H](CO)NC(=O)[C@H](CO)NC(=O)[C@H](CO)NC(=O)[C@H](C)NC(=O)[C@H](CCC(=O)O)NC(=O)[C@@H]1CCCN1C(=O)[C@H](CC(N)=O)NC(=O)[C@H](CO)NC(=O)[C@@H]1CCCN1S(=O)(=O)c1cccc2c(N(C)C)cccc12)[C@@H](C)O)C(=O)N[C@H](C(=O)N1CCC[C@H]1C(=O)N[C@@H](CC(=O)O)C(=O)O)[C@@H](C)O` [PTEN] (HELM PEPTIDE1{[CN(C)c1cccc2c(S(=O)(=O)[*:2])cccc12].P.S.N.P.E.A.S.S.S.T.S.V.T.P.D}$$$$V2.0), the Kd stood at 4 ± 1 µM at SPOP MATH WT [1]; 20.8 ± 0.4 µM on SPOP MATH WT [2] (read-out: Kinetics KD, WT, from kon (pseudo-first-order) and koff (displacement)). For the same molecule, the kon on SPOP MATH WT [2] was 5.5e+06 ± 500000 M⁻¹ s⁻¹. The molecule further returned a koff on SPOP MATH WT [3] of 113 ± 1 s⁻¹.

B1: dansylated peptide mimicking PTEN (region 354-368) (peptide)
peptide: Dansyl-PSNPEASSSTSVTPD
The molecule B1 registered a koff in assay [4] of 113 s⁻¹. The kon in assay [5] was determined as 5.5e+06 M⁻¹ s⁻¹. The molecule also registered a Kd in assay [6] of 5.5 µM.

B2: dansylated peptide mimicking MacroH2A (region 166-179) (peptide)
peptide: Dansyl-KAASADSTTEGTPAD
With B2, the koff in assay [4] was 21 s⁻¹. Further, the kon in assay [5] was 3e+06 M⁻¹ s⁻¹. The Kd in assay [7] is 7.8 µM.
